From ChEMBL document CHEMBL5325408, “Design, synthesis, and biological activity studies on benzimidazole derivatives targeting myeloperoxidase” (Eur J Med Chem, 2023) come the findings set out here.

The target in test [1] is T1, Myeloperoxidase (Homo sapiens) (UniProt P05164).
T1 sequence (whole entry): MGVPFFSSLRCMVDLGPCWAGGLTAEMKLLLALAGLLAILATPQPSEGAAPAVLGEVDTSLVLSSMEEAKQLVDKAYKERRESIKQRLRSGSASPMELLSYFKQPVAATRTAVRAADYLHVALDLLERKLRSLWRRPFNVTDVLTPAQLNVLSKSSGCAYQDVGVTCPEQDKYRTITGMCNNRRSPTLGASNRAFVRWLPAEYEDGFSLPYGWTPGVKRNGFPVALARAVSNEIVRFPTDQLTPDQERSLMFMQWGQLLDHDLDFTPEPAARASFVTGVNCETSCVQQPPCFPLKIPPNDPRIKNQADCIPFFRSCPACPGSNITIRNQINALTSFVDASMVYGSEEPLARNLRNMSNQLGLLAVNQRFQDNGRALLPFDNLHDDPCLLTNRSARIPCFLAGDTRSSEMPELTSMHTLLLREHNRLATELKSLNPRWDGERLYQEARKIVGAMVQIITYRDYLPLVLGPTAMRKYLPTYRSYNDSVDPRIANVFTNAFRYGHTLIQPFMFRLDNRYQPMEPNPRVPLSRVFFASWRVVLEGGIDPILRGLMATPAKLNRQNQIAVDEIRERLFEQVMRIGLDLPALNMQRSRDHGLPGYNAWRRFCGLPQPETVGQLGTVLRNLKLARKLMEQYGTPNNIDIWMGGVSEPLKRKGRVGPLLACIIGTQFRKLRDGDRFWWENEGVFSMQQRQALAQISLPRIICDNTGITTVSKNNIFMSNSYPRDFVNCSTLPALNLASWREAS
Briefly: Inhibition of human MPO using taurine as substrate assessed as reduction in substrate chlorination at 20 uM incubated for 30 mins by taurine-chloramine assay relative to control.

The target in test [2] is T2, Myeloperoxidase (Homo sapiens, UniProt P05164).
T2 sequence (P05164 whole entry): T1 sequence (whole entry)
Description: Inhibition of human MPO using taurine as substrate assessed as reduction in substrate chlorination incubated for 30 mins by taurine-chloramine assay.

The target in test [3] is T1, Myeloperoxidase (Homo sapiens). Description: Inhibition of human MPO peroxidase activity at 100 uM incubated in presence of H2O2 by amplex red assay relative to control.
Test [4] can be described thus: Antioxidant activity assessed as HOCl scavenging activity at 100 uM incubated for 10 mins in presence of TNB and taurine by absorbance based assay relative to control. Format: functional.
In test [5] the target is T2, Myeloperoxidase. Description: Inhibition of human MPO peroxidase activity incubated in presence of H2O2 by amplex red assay.

By inhibition is commonly meant how much of the control response was suppressed. As for `COc1cccc(NC(=O)CSc2nc3ccccc3[nH]2)c1`, in test [1], the inhibition was 61.4%.

In the case of `Cc1cccc(NC(=O)Cn2c(Cl)nc3ccccc32)c1`, the inhibition in test [1] was determined as 34.8%.

Take `Cc1ccc(NC(=O)Cn2c(S)nc3ccccc32)cc1`: in test [1], the inhibition was determined as 41.1%.

For the compound `O=C(CSc1nc2ccccc2[nH]1)Nc1ccccc1[N+](=O)[O-]`, the inhibition in test [1] is 48.5%.

Consider `O=C(Cn1c(=S)[nH]c2ccccc21)N1CCCCC1`, for which the inhibition in test [1] amounted to 58.2%.

As to `O=C(Cn1c(=S)[nH]c2ccccc21)Nc1cccc([N+](=O)[O-])c1`, the inhibition in test [1] is 61.9%.

Regarding `O=C(Cn1c(Cl)nc2ccccc21)Nc1ccc(Cl)cc1`, the inhibition in test [1] was determined as 63.8%.

By IC50 is commonly meant the concentration needed to halve the response being measured. For the compound `O=C(Cn1c(=S)[nH]c2ccccc21)Nc1ccccc1Cl`, the figures for the inhibition in test [1] and in test [3] were 89.4% and 47.6%, respectively. In addition, on Myeloperoxidase [2], the IC50 came to 6.67 µM. The Activity in test [4] was 5.47%.

Consider `COc1ccc(NC(=O)Cn2c(=S)[nH]c3ccccc32)cc1`, for which the values for the inhibition in test [1] and in test [3] were 81.7% and 30.5%, respectively. In addition, the IC50 on Myeloperoxidase [2] amounted to 4.08 µM. Moreover, the Activity in test [4] is 2.83%.

With `COc1ccccc1NC(=O)Cn1c(Cl)nc2ccccc21`, in test [1], the inhibition amounted to 39.3%.

Consider `O=C(Cn1c(Cl)nc2ccccc21)N1CCCCC1`, for which the inhibition in test [1] amounted to 29.1%.

Consider `O=C(CSc1nc2ccccc2[nH]1)Nc1cccc(Cl)c1`, for which the inhibition in test [1] turned out to be 56.1%.

As for `COc1ccc(NC(=O)CSc2nc3ccccc3[nH]2)cc1`, the inhibition in test [1] was determined as 50%.

Consider `COc1ccccc1NC(=O)Cn1c(=S)[nH]c2ccccc21`, for which the inhibition in test [1] stood at 94.3%; in test [3] it was 19.1%. Also, the IC50 at Myeloperoxidase [2] is 3.72 µM. Moreover, the Activity in test [4] amounted to 8.77%.

For `NNC(=O)Cn1c(=S)[nH]c2ccccc21`, the inhibition in test [1] is 93.2%; in test [3] it was 71%. The IC50 at Myeloperoxidase [2] is 0.39 µM; at Myeloperoxidase [5] it was 82.7 µM.

Consider `O=C(CSc1nc2ccccc2[nH]1)N1CCOCC1`, for which the inhibition in test [1] is 35.9%.

In the case of `O=C(Cn1c(=S)[nH]c2ccccc21)Nc1ccccc1`, the inhibition in test [1] worked out at 91.9%; in test [3], 57.5%. In addition, the IC50 on Myeloperoxidase [2] was 5.64 µM; at Myeloperoxidase [5], 95.4 µM.

On to `O=C(Cn1c(=S)[nH]c2ccccc21)NCc1ccccc1`, for which the figures for the inhibition in test [1] and in test [3] were 95.3% and 53.3%, respectively. For the same compound, the results for the IC50 at Myeloperoxidase [2] and at Myeloperoxidase [5] were 4.33 µM and 97.3 µM, respectively.

With `CCOC(=O)Cn1c(=S)[nH]c2ccccc21`, the inhibition in test [1] was found to be 51.3%.

As for `Cc1ccccc1NC(=O)Cn1c(=S)[nH]c2ccccc21`, the inhibition in test [1] turned out to be 93%; in test [3] it was 24%. Further, the IC50 at Myeloperoxidase [2] worked out at 4.26 µM. Moreover, in test [4], the Activity stood at 0.94%.

Turning to `COc1cccc(NC(=O)Cn2c(Cl)nc3ccccc32)c1`, the inhibition in test [1] was found to be 46.6%.

Take `O=C(CSc1nc2ccccc2[nH]1)Nc1ccc(Cl)cc1`: the inhibition in test [1] worked out at 52.6%.

`O=C(Cn1c(=S)[nH]c2ccccc21)NO`: the inhibition in test [1] worked out at 51.2%.

With `COc1cc(NC(=O)Cn2c(=S)[nH]c3ccccc32)cc(OC)c1OC`, in test [1], the inhibition turned out to be 62.6%.

On to `O=C(CSc1nc2ccccc2[nH]1)Nc1ccccc1`, for which the inhibition in test [1] is 50%.

Take `Cc1ccccc1NC(=O)CSc1nc2ccccc2[nH]1`: the inhibition in test [1] is 44.9%.

As for `O=C(Cn1c(Cl)nc2ccccc21)NCc1ccccc1`, the inhibition in test [1] was found to be 24.9%.

Consider `O=C(Cn1c(=S)[nH]c2ccccc21)N1CCOCC1`, for which the inhibition in test [1] came out at 52.2%.

For the compound `O=C(Cn1c(=S)[nH]c2ccccc21)Nc1ccc([N+](=O)[O-])cc1`, the inhibition in test [1] amounted to 61.4%.

For the compound `COc1cc(NC(=O)Cn2c(Cl)nc3ccccc32)cc(OC)c1OC`, the inhibition in test [1] worked out at 35.7%.

Turning to `Cc1ccc(NC(=O)Cn2c(Cl)nc3ccccc32)cc1`, the inhibition in test [1] stood at 36.5%.

Regarding `O=C(Cn1c(Cl)nc2ccccc21)Nc1ccccc1Cl`, the inhibition in test [1] was 21.9%.

For the compound `Cc1cccc(NC(=O)Cn2c(=S)[nH]c3ccccc32)c1`, the inhibition in test [1] came out at 91.4%; in test [3] it was 26.7%. Further, the IC50 on Myeloperoxidase [2] stood at 3.86 µM. Further, the Activity in test [4] turned out to be 6.79%.

For `O=C(Cn1c(Cl)nc2ccccc21)Nc1ccccc1[N+](=O)[O-]`, the inhibition in test [1] stood at 31.8%.

Consider `O=C(Cn1c(=S)[nH]c2ccccc21)Nc1ccccc1[N+](=O)[O-]`, for which the results for the inhibition in test [1] and in test [3] were 70.2% and 22.6%, respectively. Further, the IC50 at Myeloperoxidase [2] was 5.63 µM.

Consider `O=C(Cn1c(Cl)nc2ccccc21)Nc1ccc([N+](=O)[O-])cc1`, for which the inhibition in test [1] came out at 54%.

In the case of `COc1ccc(NC(=O)Cn2c(Cl)nc3ccccc32)cc1`, in test [1], the inhibition was 36.9%.

In the case of `O=C(CSc1nc2ccccc2[nH]1)Nc1ccc([N+](=O)[O-])cc1`, in test [1], the inhibition came to 62.1%.

`COc1cc(NC(=O)CSc2nc3ccccc3[nH]2)cc(OC)c1OC`: the inhibition in test [1] was determined as 68.9%.

As for `O=C(CSc1nc2ccccc2[nH]1)NCc1ccccc1`, the inhibition in test [1] was 63.6%.

On to `CCOC(=O)Cn1c(Cl)nc2ccccc21`, for which, in test [1], the inhibition amounted to 33.3%.

On to `O=C(Cn1c(=S)[nH]c2ccccc21)Nc1ccc(Cl)cc1`, for which the results for the inhibition in test [1] and in test [3] were 85.3% and 21.7%, respectively. Further, on Myeloperoxidase [2], the IC50 was 7.76 µM. Further, the Activity in test [4] is 5.85%.

With `Cc1ccc(NC(=O)CSc2nc3ccccc3[nH]2)cc1`, the inhibition in test [1] is 73%; in test [3], 0%. Also, the IC50 at Myeloperoxidase [2] stood at 8.51 µM.

Turning to `O=C(Cn1c(Cl)nc2ccccc21)N1CCOCC1`, the inhibition in test [1] came to 32.7%.

In the case of `O=C(Cn1c(Cl)nc2ccccc21)Nc1cccc(Cl)c1`, in test [1], the inhibition was 67.8%.

Turning to `O=C(Cn1c(=S)[nH]c2ccccc21)Nc1cccc(Cl)c1`, the inhibition turned out to be 75.7% in test [1] and 29.8% in test [3]. Moreover, the IC50 on Myeloperoxidase [2] turned out to be 9.44 µM. Further, the Activity in test [4] was 1.04%.

Regarding `Cc1ccccc1NC(=O)Cn1c(Cl)nc2ccccc21`, the inhibition in test [1] worked out at 28.5%.

`Cc1cccc(NC(=O)CSc2nc3ccccc3[nH]2)c1`: the inhibition in test [1] came to 92.5%; in test [3] it was 4.3%. For the same compound, the IC50 on Myeloperoxidase [2] was 6.41 µM.

Turning to `O=C(Cn1c(Cl)nc2ccccc21)Nc1ccccc1`, the inhibition in test [1] is 27.9%.

As for `COc1cccc(NC(=O)Cn2c(=S)[nH]c3ccccc32)c1`, the inhibition in test [1] came out at 65.5%.

Regarding `O=C(CSc1nc2ccccc2[nH]1)N1CCCCC1`, the inhibition in test [1] is 32%.

Turning to `O=C(Cn1c(Cl)nc2ccccc21)Nc1cccc([N+](=O)[O-])c1`, the inhibition in test [1] is 44%.

With `O=C(CSc1nc2ccccc2[nH]1)Nc1cccc([N+](=O)[O-])c1`, the inhibition in test [1] was 62.3%.

As to `COc1ccccc1NC(=O)CSc1nc2ccccc2[nH]1`, the inhibition in test [1] is 72.6%; in test [3], 0%. For the same compound, the IC50 at Myeloperoxidase [2] worked out at 10.4 µM.

Take `O=C(CSc1nc2ccccc2[nH]1)Nc1ccccc1Cl`: the inhibition in test [1] stood at 54.4%.
